In US20250066383A1, “PDE 7 MODULATOR COMPOUNDS” (Omeros Corporation, priority 2023, published 2025):

How the values were obtained:
PDE7B = PDE7B (Homo sapiens (Human), UniProt Q9NP56); test: PDE7B assay: inhibition of PDE7B hydrolysis of [3H]cAMP to [3H]AMP (scintillation proximity, yttrium silicate beads); assay type: biochemical; conditions: 16 nM [3H]cAMP, 30° C., 20 minutes; read-out: PDE 7B IC50
Procedure: (§1) PDE7A and PDE7B Assay. Compounds were tested for their activity by measuring the inhibition of PDE7A or PDE7B hydrolysis of [3H]cAMP to [3H]AMP. Generally, eight dilutions of compound were assayed in 50 mM Tris-HCl pH 7.5, 8.3 mM MgCl2, 0.5 mg/mL BSA, 1.7 mM EGTA, 16 nM [3H]cAMP, and 1% DMSO. PDE7A or PDE7B (typically 1-5 ng/mL) (BPS BioSciences, CA) is added to initiate the reaction. The reaction was incubated at 30° C. for 20 minutes. PDE7A and PDE7B hydrolysis was terminated by the addition of yttrium silicate beads (GE Healthcare, RPNQ0150) and counted on a Wallac Microbeta scintillation counter, 1-2 hours following the addition of the beads. Data was analyzed using XLfit […] from which ICso values were obtained.

PDE7A = PDE7A (Homo sapiens (Human), UniProt Q13946); test: PDE7A assay: inhibition of PDE7A hydrolysis of [3H]cAMP to [3H]AMP (scintillation proximity, yttrium silicate beads); assay type: biochemical; conditions: 16 nM [3H]cAMP, 30° C., 20 minutes; read-out: PDE 7A IC50
Procedure: as §1

PDE7B, sequence (Q9NP56 whole entry): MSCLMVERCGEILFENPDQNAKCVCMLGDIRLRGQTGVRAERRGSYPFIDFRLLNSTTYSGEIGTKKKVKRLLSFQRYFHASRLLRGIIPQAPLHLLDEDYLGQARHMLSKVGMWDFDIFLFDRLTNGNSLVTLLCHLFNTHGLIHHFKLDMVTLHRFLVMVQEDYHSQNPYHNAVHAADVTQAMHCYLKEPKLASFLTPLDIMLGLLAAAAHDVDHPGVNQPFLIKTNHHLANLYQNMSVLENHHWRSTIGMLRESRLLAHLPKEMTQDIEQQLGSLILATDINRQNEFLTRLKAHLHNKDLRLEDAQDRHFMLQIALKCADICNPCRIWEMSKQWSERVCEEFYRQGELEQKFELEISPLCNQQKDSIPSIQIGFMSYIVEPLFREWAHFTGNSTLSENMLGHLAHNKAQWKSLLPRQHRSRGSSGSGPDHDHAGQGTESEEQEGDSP
PDE7A, sequence (Q13946 whole entry): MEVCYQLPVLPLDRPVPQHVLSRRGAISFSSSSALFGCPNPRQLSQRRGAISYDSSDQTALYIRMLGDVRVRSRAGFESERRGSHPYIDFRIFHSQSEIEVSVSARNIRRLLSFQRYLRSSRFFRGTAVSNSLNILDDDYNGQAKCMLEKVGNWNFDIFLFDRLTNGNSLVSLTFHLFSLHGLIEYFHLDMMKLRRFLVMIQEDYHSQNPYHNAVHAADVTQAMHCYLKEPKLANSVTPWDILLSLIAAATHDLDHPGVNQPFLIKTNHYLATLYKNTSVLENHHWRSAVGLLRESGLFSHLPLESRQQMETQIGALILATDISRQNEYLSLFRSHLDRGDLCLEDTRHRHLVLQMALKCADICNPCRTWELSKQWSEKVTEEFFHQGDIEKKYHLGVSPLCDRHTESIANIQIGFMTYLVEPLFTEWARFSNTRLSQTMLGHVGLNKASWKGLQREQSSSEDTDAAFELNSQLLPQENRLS

SMILES | IC50 (PDE7B) | IC50 (PDE7A)
Cc1nn(CC(C)(C)C)c2sc(C(=O)N[C@H]3CC[C@H](N4CC(OC(F)F)C4)CC3)cc12 [II-42, N-((1r,4r)-4-(3-(difluoromethoxy)-azetidin-1-yl)cyclo-hexyl)-3-methyl-1-neopentyl-1H-thieno [2,3-c]pyrazole-5-carboxamide] | < 0.01 µM | < 0.01 µM
Cc1nn(CC(C)C)c2sc(C(=O)N[C@H]3CC[C@H](N4CCN(C(C)C)CC4)CC3)cc12 [II-5, 1-isobutyl-N-((1r,4r)-4-(4-isopropylpiper-azin-1-yl)cyclohexyl)-3-methyl-1H-thieno [2,3-c]pyrazole-5-carboxamide] | 0.01 to 0.03 µM | 0.03 to 0.1 µM
Cc1nn(C2CCC(F)(F)CC2)c2sc(C(=O)N[C@H]3CC[C@H](N4CC(OC(F)F)C4)CC3)cc12 [II-41, 1-(4,4-difluorocyclo-hexyl)-N-((1r,4r)-4-(3-(difluorometh-oxy)azetidin-1-yl)-cyclohexyl)-3-methyl-1H-thieno [2,3-c]pyrazole-5-carboxamide] | < 0.01 µM | 0.01 to 0.03 µM
